Experimental data reported in paper PMC9367672, “In vitro differences in toddalolactone metabolism in various species and its effect on cytochrome P450 expression” (Pharmaceutical Biology, 2022).

Key:
[1] = Metabolic stability assessment in rabbit liver microsomes; format: in vitro ADME; details: pH 7.4, RAMs, toddalolactone 20 μM, 0-90 min
Experimental: (§1) The CYP reaction system (200 μL) consisted of 0.1 M potassium phosphate buffer (pH 7.4), an NADPH-generating system (1 mM NADPH, 10 mM G-6-P, 1 unit/mL G-6-PD, 4 mM MgCl2), and liver microsomes or recombinant human microsomes (supersomes). Each of the in vitro enzymatic assays using liver microsomes was linear with respect to incubation time and amount of protein. After a pre-incubation at 37 °C for 3 min, the reactions were initiated by adding NADP^+. After incubating for 60 min, the reactions were quenched by adding 200 μL of ice-cold acetonitrile. Samples were centrifuged at 18,000 g for 15 min at 4 °C and 10 μL of supernatant was analyzed using an HPLC system. […]
(§2) In the UGT reaction system, liver microsomes were incubated in 200 μL of the reaction system containing 4 mM UDPGA, 5 mM MgCl2, 20 µg/mL alamethicin, and 50 mM Tris-HCl buffer (pH 7.4). […] After centrifugation at 18,000 g for 15 min, 10 μL of the supernatant was analyzed by HPLC.
(§3) Toddalolactone (20 μM) was incubated with different liver microsomes, including HLMs, DLMs, PLMs, MLMs, RAMs, RLMs or MIMs in oxidative metabolism and glucuronidation reaction systems. […] The mixtures were centrifuged at 18,000 g for 15 min at 4 °C and then 10 μL of the supernatant was analyzed by HPLC. […]
(§4) The peak areas of toddalolactone and its metabolites were detected using a HPLC system (Shimadzu, Kyoto, Japan). […]

[2] = Metabolic stability assessment in human liver microsomes (CYP and UGT incubation systems); format: in vitro ADME; details: pH 7.4, HLMs, toddalolactone 20 μM, 0-90 min
Experimental: as §1, §2, §3, §4

DLMs = experiment: Prediction of in vivo hepatic clearance in dogs from DLM kinetics; format: in vitro ADME, dog
Experimental: The in vivo hepatic clearances in oxidative metabolism and glucuronidation of toddalolactone were calculated using Equations (4)–(6) (Li et al. [2008]): (4) CLint in vitro=∑i=1nVmax(Mi)/Km(Mi) (5) CLint in vivo=CLint in vitro⋅SF (6) CLH=QH⋅fu⋅CLint in vivo/QH+fu⋅CLint in vivo where SF is the milligrams of microsomal protein per gram of liver multiplied by the grams of liver weight; CLH is hepatic clearance; fu is the unbound fraction in the blood (the value of fu was set to 1 due to the absence of available data for toddalolactone); QH is the blood flow in the liver; and Mi is the metabolite of toddalolacone. The physiological parameters to calculate intrinsic clearance were as follows. The liver weight of dogs, rats and humans were 32, 40 and 25.7 g/kg body weight, respectively; the content of microsomal protein was 77.9, 44.8 and 48.8 mg/g of liver; and the blood flow in the liver was 30.9, 55.2 and 20.7 mL/(min ⋅ kg), respectively (Naritomi et al. [2001]).

[3] = Metabolic stability assessment in dog liver microsomes; format: in vitro ADME; details: beagle, pH 7.4, DLMs, CYP incubation system, toddalolactone 20 μM, 0-90 min, read-out: half-life value (T1/2)
Experimental: as §1, §2, §3, §4

CYP3A5 [4] = biological target: CYP3A5 (Homo sapiens, UniProt P20815); experiment: Enzyme kinetics of toddalolactone metabolism by recombinant CYP3A5; details: P4 formation
Experimental: The CYP reaction system (200 μL) consisted of 0.1 M potassium phosphate buffer (pH 7.4), an NADPH-generating system (1 mM NADPH, 10 mM G-6-P, 1 unit/mL G-6-PD, 4 mM MgCl2), and liver microsomes or recombinant human microsomes (supersomes). Each of the in vitro enzymatic assays using liver microsomes was linear with respect to incubation time and amount of protein. After a pre-incubation at 37 °C for 3 min, the reactions were initiated by adding NADP^+. After incubating for 60 min, the reactions were quenched by adding 200 μL of ice-cold acetonitrile. Samples were centrifuged at 18,000 g for 15 min at 4 °C and 10 μL of supernatant was analyzed using an HPLC system. NADPH or CYP enzyme sources were not used in the control group to ensure that the metabolic reactions were CYP- and NADPH-dependent. All incubation assays were completed in triplicate. The data are presented as mean ± standard deviation (SD).
The enzyme kinetics of toddalolactone in oxidative metabolism and glucuronidation were determined by incubating liver microsomes (0.2 mg/mL) or CYPs (15 nM) with different concentrations of toddalolactone (1–200 μM). The kinetic parameters including Km and Vmax were obtained by fitting the experimental data to the Michaelis–Menten equation (Equation (1)), biphasic kinetics equation (Equation (2)), or substrate inhibition equation (Equation (3)) (He et al. [2018]), and the results were graphically represented on Eadie–Hofstee plots. The in vitro intrinsic clearance (CLint) was calculated based on the Vmax/Km ratio. Metabolites were quantified using the standard curve for toddalolactone because of the absence of metabolite standards. All incubations were repeated in three independent experiments. Kinetic constants were expressed with mean ± SD: (1) V=Vmax×[S]/Km+[S] (2) V=Vmax1×[S]/Ks1+[S]+Vmax2×[S]/Ks2+[S] […]

[5] = Metabolic stability assessment in monkey liver microsomes; format: in vitro ADME; details: pH 7.4, MLMs, toddalolactone 20 μM, 0-90 min
Experimental: as §1, §2, §3, §4

CYP3A5 [6] = experiment: Western blot of CYP3A5 protein expression in HepG2 cells; format: cell-based; details: 0, 10 and 50 μM, 24 h
Experimental: Hep G2 cells were seeded into 100 mm Petri dishes and treated with different concentrations of toddalolactone (0, 10 and 50 µmol/L) for 24 h. Total protein was extracted using RIPA lysis buffer containing proteinase inhibitor (BestBio, Shanghai, China). After the protein concentration was measured using a bicinchoninic acid (BCA) assay kit (Beyotime, Shanghai, China), samples were electrophoretically transferred to polyvinylidene difluoride (PVDF) membranes. After blocking with TTBS (0.5% Tween 20, 10 mM Tris-HCl, pH 7.5, 150 mM NaCl) containing 5% non-fat milk for 1 h at room temperature, the membrane was incubated with antibodies against β-Actin, CYP1A1, and CYP3A5 overnight at 4 °C. Then, membranes were washed with TBS (10 mM Tris-HCl, pH 7.5, 150 mM NaCl) containing 0.05% Tween 20 three times and further incubated with HRP-conjugated secondary antibodies against rabbit (for β-actin, CYP1A1 and CYP3A5) for 1 h at room temperature.

[7] = Metabolic stability assessment in rat liver microsomes; format: in vitro ADME; details: pH 7.4, RLMs, toddalolactone 20 μM, 0-90 min
Experimental: as §1, §2, §3, §4

[8] = CYP incubation system, read-out: half-life value (T1/2)
[9] = UGT incubation system, read-out: T1/2 value

Sequence of CYP3A5 (Homo sapiens, UniProt P20815) (P20815 whole entry): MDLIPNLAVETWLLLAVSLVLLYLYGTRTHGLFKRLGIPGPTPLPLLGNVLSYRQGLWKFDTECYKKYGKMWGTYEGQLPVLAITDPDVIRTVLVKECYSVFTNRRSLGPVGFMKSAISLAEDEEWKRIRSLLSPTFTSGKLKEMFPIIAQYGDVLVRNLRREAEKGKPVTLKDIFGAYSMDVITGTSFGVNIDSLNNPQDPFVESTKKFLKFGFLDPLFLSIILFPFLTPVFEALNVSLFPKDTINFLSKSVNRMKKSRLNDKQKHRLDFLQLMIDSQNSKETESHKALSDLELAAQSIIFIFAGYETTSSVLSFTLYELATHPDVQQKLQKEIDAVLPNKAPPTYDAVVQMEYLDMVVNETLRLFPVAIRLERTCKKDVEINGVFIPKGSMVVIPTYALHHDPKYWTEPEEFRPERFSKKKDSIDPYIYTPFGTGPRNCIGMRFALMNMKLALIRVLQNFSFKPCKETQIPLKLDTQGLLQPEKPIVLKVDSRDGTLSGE

COc1cc2oc(=O)ccc2c(OC)c1C[C@@H](O)C(C)(C)O [toddalolactone]
half-life at 20 μM [1, 8]: 6.78 ± 0.517 h | half-life at 20 μM [1, 9]: 2.07 ± 0.138 h | half-life at 20 μM [2, 8]: 11.2 h | half-life at 20 μM [2, 9]: 1.38 h | CLH versus hepatic blood flow (QH) (DLMs; DLMs): 5.41% | clearance class according to predicted CLH (DLMs; dogs): low-clearance (low-clearance drugs (<30% liver blood flow)) | in vivo hepatic clearance (CLH) (DLMs; dogs, predicted from kinetic parameters of P1–P6, fu set to 1): 0.47 mL/(min/kg body weight) | half-life at 20 μM [3]: 8.23 ± 0.7 h | K m (CYP3A5 [4]; recombinant CYP3A5 (15 nM)): 50.34 ± 8.62 µM | CLint (CYP3A5 [4]; recombinant CYP3A5, Vmax/Km): 0.013 µL/min/nmol CYP | half-life at 20 μM [5, 8]: 4.08 h | half-life at 20 μM [5, 9]: 1.1 h | protein expression of CYP3A5 (CYP3A5 [6]): did not show any significant change | half-life at 20 μM [7, 8]: 6.37 ± 0.283 h | half-life at 20 μM [7, 9]: 2.15 ± 0.197 h
